Tested on: MDA-MB-231 complex spheroid viability
Test: Anticancer human tumor MDA-MB-231/ATCC cell line growth inhibition;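 further: drug exposure lasted 7 days starting on day 3 of spheroid growth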
Conditions: for IC50: curve of first compound; for viability, T/C: stronger effect = lower value
How it was run: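 Drug combinations with the LSD1 inhibitor iadademstat tested on tumor cells co-cultured as spheroids with endothelial cells and mesenchymal stem cells. Concentrations descended in half-log increments from clinical Cmax or 10 microM.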

## Nc1ccccc1NC(=O)c1ccc(CNC(=O)OCc2cccnc2)cc1 + NC1CCC(NC2CC2c2ccccc2)CC1
Second compound 0.1 µM
  IC50: 62.2 nM
Second compound 0.316 µM
  IC50: 65.8 nM
Second compound 1 µM
  IC50: 50.7 nM
Second compound 3.16 µM
  IC50: 38.5 nM
Second compound 10 µM
  IC50: 26.3 nM
Second compound 0.1 µM, first compound 0.00949 µM
  viability, T/C: 89.4%
Second compound 0.1 µM, first compound 0.03 µM
  viability, T/C: 61%
Second compound 0.1 µM, first compound 0.0949 µM
  viability, T/C: 39%
Second compound 0.1 µM, first compound 0.3 µM
  viability, T/C: 31.5%
Second compound 0.1 µM, first compound 0.949 µM
  viability, T/C: 15.9%
Second compound 0.1 µM, first compound 3 µM
  viability, T/C: 3.58%
Second compound 0.316 µM, first compound 0.00949 µM
  viability, T/C: 86.2%
Second compound 0.316 µM, first compound 0.03 µM
  viability, T/C: 64.6%
Second compound 0.316 µM, first compound 0.0949 µM
  viability, T/C: 39.6%
Second compound 0.316 µM, first compound 0.3 µM
  viability, T/C: 29.4%
Second compound 0.316 µM, first compound 0.949 µM
  viability, T/C: 16.3%
Second compound 0.316 µM, first compound 3 µM
  viability, T/C: 2.82%
Second compound 1 µM, first compound 0.00949 µM
  viability, T/C: 85%
Second compound 1 µM, first compound 0.03 µM
  viability, T/C: 58%
Second compound 1 µM, first compound 0.0949 µM
  viability, T/C: 37%
Second compound 1 µM, first compound 0.3 µM
  viability, T/C: 26.4%
Second compound 1 µM, first compound 0.949 µM
  viability, T/C: 14.3%
Second compound 1 µM, first compound 3 µM
  viability, T/C: 2.97%
Second compound 3.16 µM, first compound 0.00949 µM
  viability, T/C: 72.7%
Second compound 3.16 µM, first compound 0.03 µM
  viability, T/C: 54.1%
Second compound 3.16 µM, first compound 0.0949 µM
  viability, T/C: 35.7%
Second compound 3.16 µM, first compound 0.3 µM
  viability, T/C: 20.6%
Second compound 3.16 µM, first compound 0.949 µM
  viability, T/C: 10.1%
Second compound 3.16 µM, first compound 3 µM
  viability, T/C: 1.4%
Second compound 10 µM, first compound 0.00949 µM
  viability, T/C: 63.2%
Second compound 10 µM, first compound 0.03 µM
  viability, T/C: 47.7%
Second compound 10 µM, first compound 0.0949 µM
  viability, T/C: 32.2%
Second compound 10 µM, first compound 0.3 µM
  viability, T/C: 15.1%
Second compound 10 µM, first compound 0.949 µM
  viability, T/C: 7.15%
Second compound 10 µM, first compound 3 µM
  viability, T/C: 0.5%

## CC[C@@]1(O)C(=O)OCc2c1cc1n(c2=O)Cc2cc3c(CN(C)C)c(O)ccc3nc2-1 + NC1CC1c1ccc(-c2cccc(O)c2)cc1
Second compound 0.1 µM
  IC50: 1.63 nM
Second compound 0.316 µM
  IC50: 0.845 nM
Second compound 1 µM
  IC50: 0.672 nM
Second compound 3.16 µM
  IC50: 1.04 nM
Second compound 10 µM
  IC50: < 0.316 nM
Second compound 0.1 µM, first compound 0.000316 µM
  viability, T/C: 72.6%
Second compound 0.1 µM, first compound 0.001 µM
  viability, T/C: 62.5%
Second compound 0.1 µM, first compound 0.00316 µM
  viability, T/C: 33.1%
Second compound 0.1 µM, first compound 0.01 µM
  viability, T/C: 23.5%
Second compound 0.1 µM, first compound 0.0316 µM
  viability, T/C: 27.3%
Second compound 0.1 µM, first compound 0.1 µM
  viability, T/C: 22%
Second compound 0.316 µM, first compound 0.000316 µM
  viability, T/C: 61.8%
Second compound 0.316 µM, first compound 0.001 µM
  viability, T/C: 48.1%
Second compound 0.316 µM, first compound 0.00316 µM
  viability, T/C: 28.9%
Second compound 0.316 µM, first compound 0.01 µM
  viability, T/C: 25.3%
Second compound 0.316 µM, first compound 0.0316 µM
  viability, T/C: 26%
Second compound 0.316 µM, first compound 0.1 µM
  viability, T/C: 20.4%
Second compound 1 µM, first compound 0.000316 µM
  viability, T/C: 62.3%
Second compound 1 µM, first compound 0.001 µM
  viability, T/C: 43.6%
Second compound 1 µM, first compound 0.00316 µM
  viability, T/C: 32%
Second compound 1 µM, first compound 0.01 µM
  viability, T/C: 25.1%
Second compound 1 µM, first compound 0.0316 µM
  viability, T/C: 24.6%
Second compound 1 µM, first compound 0.1 µM
  viability, T/C: 20.5%
Second compound 3.16 µM, first compound 0.000316 µM
  viability, T/C: 57.2%
Second compound 3.16 µM, first compound 0.001 µM
  viability, T/C: 50.8%
Second compound 3.16 µM, first compound 0.00316 µM
  viability, T/C: 29.4%
Second compound 3.16 µM, first compound 0.01 µM
  viability, T/C: 25.5%
Second compound 3.16 µM, first compound 0.0316 µM
  viability, T/C: 25%
Second compound 3.16 µM, first compound 0.1 µM
  viability, T/C: 20.9%
Second compound 10 µM, first compound 0.000316 µM
  viability, T/C: 49%
Second compound 10 µM, first compound 0.001 µM
  viability, T/C: 36.1%
Second compound 10 µM, first compound 0.00316 µM
  viability, T/C: 24.3%
Second compound 10 µM, first compound 0.01 µM
  viability, T/C: 22.5%
Second compound 10 µM, first compound 0.0316 µM
  viability, T/C: 22.3%
Second compound 10 µM, first compound 0.1 µM
  viability, T/C: 16.2%

From PubChem BioAssay AID1918953 (Molecular Pharmacology Branch, DTP, NCI, 2023)
